Source: ChEMBL document CHEMBL4376854, “Investigation of the Adrenergic and Opioid Binding Affinities, Metabolic Stability, Plasma Protein Binding Properties, and Functional Effects of Selected Indole-Based Kratom Alkaloids” (J Med Chem, 2020)
Active and inactive are the calls of the source. The rule behind the calls is not given here.

Experiments:
[1] = target: T1, Alpha-1A adrenergic receptor (Homo sapiens, UniProt P35348); assay: Displacement of [3H]prazosin from human recombinant adrenergic alpha-1A receptor expressed in CHO cell membranes incubated for 60 mins
T1 sequence (P35348 whole entry): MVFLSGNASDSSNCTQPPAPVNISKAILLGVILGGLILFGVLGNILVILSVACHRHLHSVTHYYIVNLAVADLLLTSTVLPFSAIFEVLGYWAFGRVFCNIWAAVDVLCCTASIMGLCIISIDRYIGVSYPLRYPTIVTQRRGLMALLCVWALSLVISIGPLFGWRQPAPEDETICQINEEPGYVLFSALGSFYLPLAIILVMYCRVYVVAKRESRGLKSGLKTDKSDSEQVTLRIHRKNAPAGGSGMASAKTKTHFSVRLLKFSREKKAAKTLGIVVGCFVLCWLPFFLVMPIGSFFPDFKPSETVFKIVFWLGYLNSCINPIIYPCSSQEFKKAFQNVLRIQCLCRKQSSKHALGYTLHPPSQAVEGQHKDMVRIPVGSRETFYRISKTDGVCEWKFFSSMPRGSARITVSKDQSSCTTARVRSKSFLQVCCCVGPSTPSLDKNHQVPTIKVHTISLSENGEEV

[2] = target: T2, Kappa-type opioid receptor (Homo sapiens, UniProt P41145); assay: Displacement of [3H]U69,593 from human recombinant kappa opioid receptor expressed in rat RBL cell membranes incubated for 60 mins
[3] = target: Delta-type opioid receptor (Homo sapiens, UniProt P41143); assay: Displacement of [3H]DADLE from human recombinant delta opioid receptor expressed in rat Chem-1 (RBL) cell membranes at 100 nM incubated for 60 mins relative to control
[4] = human, microsomes, 1 µM
[5] = target: Nociceptin receptor (Homo sapiens) (UniProt P41146); settings: 100 nM
[6] = target: T3, Alpha-1A adrenergic receptor (Homo sapiens) (UniProt P35348); settings: CHO, 10000 nM
T3 sequence (whole entry): T1 sequence (P35348 whole entry)

[7] = target: T4, Alpha-2A adrenergic receptor (Homo sapiens) (UniProt P08913); settings: CHO, 10000 nM
T4 sequence (whole entry): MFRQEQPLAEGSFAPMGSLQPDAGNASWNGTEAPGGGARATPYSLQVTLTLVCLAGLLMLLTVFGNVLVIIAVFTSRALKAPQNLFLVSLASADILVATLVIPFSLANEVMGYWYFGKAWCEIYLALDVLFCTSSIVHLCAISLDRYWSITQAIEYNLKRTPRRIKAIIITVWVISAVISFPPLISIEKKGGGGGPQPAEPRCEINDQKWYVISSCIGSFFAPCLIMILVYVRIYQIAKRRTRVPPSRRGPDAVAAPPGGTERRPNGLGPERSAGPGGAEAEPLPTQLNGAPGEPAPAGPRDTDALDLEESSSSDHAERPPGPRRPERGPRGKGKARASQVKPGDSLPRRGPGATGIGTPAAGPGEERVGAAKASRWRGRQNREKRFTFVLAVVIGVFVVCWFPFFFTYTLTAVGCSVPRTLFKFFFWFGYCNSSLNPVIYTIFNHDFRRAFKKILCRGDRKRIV

[8] = human, microsomes, 1 h
[9] = target: T5, Alpha-1D adrenergic receptor (Homo sapiens, UniProt P25100); assay: Displacement of [3H]prazosin from human recombinant adrenergic alpha-1D receptor expressed in CHO cell membranes incubated for 60 mins
T5 sequence (P25100 whole entry): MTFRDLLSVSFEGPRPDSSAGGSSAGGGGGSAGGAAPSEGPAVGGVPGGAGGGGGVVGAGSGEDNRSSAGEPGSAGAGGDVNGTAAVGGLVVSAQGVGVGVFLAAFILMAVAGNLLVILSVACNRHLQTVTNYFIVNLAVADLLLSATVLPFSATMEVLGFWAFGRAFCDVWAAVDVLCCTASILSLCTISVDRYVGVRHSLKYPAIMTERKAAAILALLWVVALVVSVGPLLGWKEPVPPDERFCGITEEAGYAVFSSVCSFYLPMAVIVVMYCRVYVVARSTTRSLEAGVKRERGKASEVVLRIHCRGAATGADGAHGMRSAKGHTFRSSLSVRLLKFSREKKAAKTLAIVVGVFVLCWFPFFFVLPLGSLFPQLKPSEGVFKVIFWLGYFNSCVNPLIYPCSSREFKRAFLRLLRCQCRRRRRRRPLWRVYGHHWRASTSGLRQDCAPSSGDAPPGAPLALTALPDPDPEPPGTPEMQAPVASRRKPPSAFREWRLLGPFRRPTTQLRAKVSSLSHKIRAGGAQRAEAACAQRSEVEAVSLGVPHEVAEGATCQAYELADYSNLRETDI

Rattus norvegicus [10] = assay: Antinociceptive activity in Sprague-Dawley rat dosed intravenously using cumulative dosing every 5 mins until rat maxed-out on hot plate by hot plate test relative to control; format: functional
[11] = target: T6, Alpha-2B adrenergic receptor (Homo sapiens, UniProt P18089); assay: biochemical; format: cell-based, CHO
T6 sequence (P18089 whole entry): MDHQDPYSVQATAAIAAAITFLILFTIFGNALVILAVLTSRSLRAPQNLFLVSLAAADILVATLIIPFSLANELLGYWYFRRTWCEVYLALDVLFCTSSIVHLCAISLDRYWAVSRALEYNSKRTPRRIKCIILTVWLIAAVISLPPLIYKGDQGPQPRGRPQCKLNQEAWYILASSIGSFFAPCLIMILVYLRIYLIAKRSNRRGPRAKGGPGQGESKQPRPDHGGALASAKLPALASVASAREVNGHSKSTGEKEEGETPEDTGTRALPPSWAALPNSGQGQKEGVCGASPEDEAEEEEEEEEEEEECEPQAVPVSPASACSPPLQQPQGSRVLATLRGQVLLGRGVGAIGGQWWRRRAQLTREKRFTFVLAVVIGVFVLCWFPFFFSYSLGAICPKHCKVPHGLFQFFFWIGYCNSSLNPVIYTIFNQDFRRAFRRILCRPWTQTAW

[12] = target: T7, Alpha-1D adrenergic receptor (Homo sapiens) (UniProt P25100); assay: Partial agonist activity at human recombinant adrenergic alpha-1D receptor expressed in rat RBL cells assessed as stimulation of intracellular calcium levels incubated at room temperature by fluorimetry; format: functional, cell-based
T7 sequence (whole entry): T5 sequence (P25100 whole entry)

[13] = target: T3, Alpha-1A adrenergic receptor (Homo sapiens); settings: CHO, 100 nM
[14] = target: Nociceptin receptor (Homo sapiens) (UniProt P41146); settings: 10000 nM
Rattus norvegicus [15] = assay: Antinociceptive activity in Sprague-Dawley rat dosed intravenously using cumulative dosing every 5 mins until rat maxed-out on hot plate by hot plate test; format: functional; settings: iv
[16] = target: T8, Alpha-2B adrenergic receptor (Homo sapiens) (UniProt P18089); settings: CHO, 100 nM
T8 sequence (whole entry): T6 sequence (P18089 whole entry)

[17] = target: T2, Kappa-type opioid receptor; assay: Agonist activity at human recombinant kappa opioid receptor expressed in rat RBL cells assessed as stimulation of intracellular calcium levels incubated at room temperature by fluorimetry; format: functional, cell-based

T2 sequence (P41145 whole entry): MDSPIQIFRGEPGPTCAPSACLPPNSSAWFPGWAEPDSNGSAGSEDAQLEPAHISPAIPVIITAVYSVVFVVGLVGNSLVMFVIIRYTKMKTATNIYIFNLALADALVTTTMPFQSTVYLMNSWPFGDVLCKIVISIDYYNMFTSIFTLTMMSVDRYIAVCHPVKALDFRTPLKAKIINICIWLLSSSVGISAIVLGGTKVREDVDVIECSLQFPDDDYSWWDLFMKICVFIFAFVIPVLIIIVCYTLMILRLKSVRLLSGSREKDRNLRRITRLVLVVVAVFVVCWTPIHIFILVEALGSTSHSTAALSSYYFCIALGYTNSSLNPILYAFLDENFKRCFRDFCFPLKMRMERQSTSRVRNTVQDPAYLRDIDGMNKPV
Nociceptin receptor (Homo sapiens), sequence (P41146 whole entry): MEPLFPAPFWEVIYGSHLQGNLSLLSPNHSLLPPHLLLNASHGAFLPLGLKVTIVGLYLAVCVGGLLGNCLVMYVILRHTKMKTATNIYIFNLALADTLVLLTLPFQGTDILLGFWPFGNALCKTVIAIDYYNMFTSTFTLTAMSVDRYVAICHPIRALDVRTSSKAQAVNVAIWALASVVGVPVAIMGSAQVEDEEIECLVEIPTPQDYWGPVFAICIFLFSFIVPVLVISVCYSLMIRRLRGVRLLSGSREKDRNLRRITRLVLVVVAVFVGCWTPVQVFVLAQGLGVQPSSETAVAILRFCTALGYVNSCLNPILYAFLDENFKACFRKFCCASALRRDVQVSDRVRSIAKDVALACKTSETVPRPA
Delta-type opioid receptor, sequence (P41143 whole entry): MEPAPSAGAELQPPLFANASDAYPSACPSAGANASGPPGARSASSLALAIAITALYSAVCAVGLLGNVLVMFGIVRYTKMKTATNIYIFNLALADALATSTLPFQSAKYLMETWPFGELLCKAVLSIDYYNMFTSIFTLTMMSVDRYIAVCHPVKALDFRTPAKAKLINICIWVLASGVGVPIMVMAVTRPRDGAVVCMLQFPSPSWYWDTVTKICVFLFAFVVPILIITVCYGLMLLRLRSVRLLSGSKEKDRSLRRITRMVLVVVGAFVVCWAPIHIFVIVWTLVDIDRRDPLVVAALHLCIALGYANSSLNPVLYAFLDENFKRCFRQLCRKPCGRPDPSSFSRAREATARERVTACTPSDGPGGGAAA

Row | SMILES | Ki [1] | Ki [2] | inhibition [3] | Fu [4] | inhibition [5] | inhibition [6] | inhibition [7] | Kel [8] | Ki [9] | Emax (Rattus norvegicus [10]; Rattus norvegicus, Sprague-Dawley, iv, 5 min) | Ki [11] | Activity [12] | inhibition [13] | inhibition [14] | ED50 (Rattus norvegicus [15]) | inhibition [16] | MPE (Rattus norvegicus [10]) | Activity [17]
1 | CC[C@@H]1CN2CCc3c([nH]c4cccc(OC)c34)[C@@H]2C[C@@H]1/C(=C\OC)C(=O)OC | 1340 nM | 198 nM | 0.4% | 0.307 | 4.3% | 83.5% | 40.4% | 0.0347 min⁻¹ | 5480 nM | 17.3% | 9290 nM | Active | 13.2% | 40.8% | – | – | – | –
2 | CC[C@@H]1CN2CCc3c([nH]c4cccc(OC)c34)[C@H]2C[C@@H]1/C(=C\OC)C(=O)OC | – | 116 nM | 0.6% | 0.276 | – | 81.1% | 73.1% | 0.0166 min⁻¹ | – | – | – | – | 16.8% | 31.8% | 6.25 mg/kg | 0% | 100% | inactive
